molecular target: T1, USP28 (USP28-5(1-1077)-TEV-6*His; LifeSensors) (Homo sapiens, UniProt Q96RU2); assay: Ubiquitin-Rhodamine 110 Assay for USP28 Activity, Example A-1(b); type: biochemical; conditions: Ub-Rh110 assay, Example A-1(b)
T1 construct: construct USP28 (USP28-5(1-1077)-TEV-6*His; LifeSensors); TEV cleavage site (C); 6xHis (C); purchased LifeSensors
T1 sequence (Q96RU2 1-1077): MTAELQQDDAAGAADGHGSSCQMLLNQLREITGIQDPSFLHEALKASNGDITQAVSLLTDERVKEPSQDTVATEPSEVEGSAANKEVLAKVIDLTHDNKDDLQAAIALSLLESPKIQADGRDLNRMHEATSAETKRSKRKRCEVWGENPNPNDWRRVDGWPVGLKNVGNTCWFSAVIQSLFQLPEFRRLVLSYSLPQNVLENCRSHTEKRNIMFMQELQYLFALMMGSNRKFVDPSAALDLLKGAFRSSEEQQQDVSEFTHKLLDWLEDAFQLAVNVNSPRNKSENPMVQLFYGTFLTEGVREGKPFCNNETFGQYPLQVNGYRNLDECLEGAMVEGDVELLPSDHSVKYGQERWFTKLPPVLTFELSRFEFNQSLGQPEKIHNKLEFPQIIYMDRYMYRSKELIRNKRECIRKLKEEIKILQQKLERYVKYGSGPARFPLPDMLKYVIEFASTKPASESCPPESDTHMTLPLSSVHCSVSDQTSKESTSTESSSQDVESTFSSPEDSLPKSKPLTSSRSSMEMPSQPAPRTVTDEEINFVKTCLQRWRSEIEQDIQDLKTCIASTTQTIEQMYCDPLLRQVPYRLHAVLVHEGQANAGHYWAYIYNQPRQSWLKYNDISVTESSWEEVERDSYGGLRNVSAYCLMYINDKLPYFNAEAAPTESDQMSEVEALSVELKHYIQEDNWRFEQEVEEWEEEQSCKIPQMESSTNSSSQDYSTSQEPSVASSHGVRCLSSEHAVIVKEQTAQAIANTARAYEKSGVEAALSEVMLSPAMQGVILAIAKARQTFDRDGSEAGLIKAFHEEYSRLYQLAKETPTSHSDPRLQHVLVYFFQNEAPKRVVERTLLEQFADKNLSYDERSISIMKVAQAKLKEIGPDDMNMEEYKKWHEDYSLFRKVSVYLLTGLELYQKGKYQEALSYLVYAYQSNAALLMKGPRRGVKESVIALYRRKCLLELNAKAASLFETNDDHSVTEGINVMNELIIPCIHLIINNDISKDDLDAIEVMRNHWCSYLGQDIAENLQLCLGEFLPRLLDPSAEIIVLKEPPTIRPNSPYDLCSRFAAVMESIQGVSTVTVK
Method: Example A-1(b): Biochemical Assay: Ubiquitin-Rhodamine 110 Assay for USP28 Activity
Each assay was performed in a final volume of 20 μL in assay buffer containing 20 mM Tris-HCl (pH 8.0, (1M Tris-HCl, pH 8.0 solution; Corning 46-031-CM)), 2 mM CaCl2) (1M Calcium Chloride solution; Sigma #21114) 2 mM BME (2-Mercaptoethanol; Sigma 63689-25ML-F), 0.01% Prionex ([…] filtered, Sigma #G-0411), and 0.01% Triton X-100. Stock compound solutions were stored at −20° C. as 10 mM in DMSO. Up to 1 month prior to the assay, 2 mM test compounds were pre-dispensed into assay plates (Black, low volume; Corning #3820) and frozen at −20° C. Prestamped assay plates were allowed to come to room temperature on the day of the assay. For the screen, 100 nL of 2 mM was pre-dispensed for a final screening concentration of 10 μM (DMSO(fc)=0.5%). […] Plates were incubated stacked for 90 minutes at room temperature before fluorescence was read on the Envision (Excitation at 485 nm and Emission at 535 nm; Perkin Elmer) or on the PheraSTAR (Excitation at 485 nm and Emission at 535 nm; BMG Labtech).
For follow-up studies, each assay was performed in a final volume of 15 μL in assay buffer containing 20 mM Tris-HCl (pH 8.0, (1M Tris-HCl, pH 8.0 solution; Corning 46-031-CM)), 3 mM BME (2-Mercaptoethanol; Sigma 63689-25ML-F), 0.03% BGG (0.22 μM filtered, Sigma, G7516-25G), and 0.01% Triton X-100 (Sigma, T9284-10L). Nanoliter quantities of either an 8-point or 10-point, 3-fold serial dilution in DMSO was pre-dispensed into assay plates (Perkin Elmer, ProxiPlate-384 F Plus, #) for a final test concentration of either 25 μM to 11 nM or 25 μM to 1.3 nM, respectively. Enzyme USP28, construct USP28 (USP28-5(1-1077)-TEV-6*His; LifeSensors) concentration and incubation times were optimized for the maximal signal-to-background while maintaining initial velocity conditions at a fixed substrate concentration. The final concentration of the enzyme in the assay was 75 pM. Final substrate (Ub-Rh110; Ubiquitin-Rhodamine 110, R&D Systems #U-555) concentration was 25 nM with [Ub-Rh110]<<Km. 5 μL of 2× enzyme was added to assay plates (pre-stamped with compound) preincubated with USP28 for 30 minutes and then 5 μL of 2×Ub-Rh110 was added to assay plates. Plates were incubated stacked for 20 minutes at room temperature before 5 μL of stop solution was added (final concentration of 10 mM citric acid (Sigma, 251275-500G)). Fluorescence was read on the Envision (Excitation at 485 nm and Emission at 535 nm; Perkin Elmer) or on the PheraSTAR (Excitation at 485 nm and Emission at 535 nm; BMG Labtech).
For assay formats Example A-1(a), A-1(b), and A-2, data were reported as percent inhibition compared with control wells based on the following equation: % inh=1−((FLU−AveLow)/(AveHigh−AveLow)) where FLU=measured Fluorescence, AveLow=average Fluorescence of no enzyme control (n=16), and AveHigh=average Fluorescence of DMSO control (n=16). IC50 values were determined by curve fitting of the standard 4 parameter logistic fitting algorithm included in the Activity Base software package: IDBS XE Designer Model 205. Data is fitted using the Levenburg Marquardt algorithm.

| SMILES | USP28 A-1(b) IC50 range |
| --- | --- |
| Cc1ccc2c(N)c(C(=O)N[C@H]3COc4cc(N5CCNCC5)ccc4C3)sc2n1 (single isomer, unassigned) [Example 1-1] | +++ (0.05-0.2 μM) |
| Cc1ccc2c(N)c(C(=O)N[C@@H]3COc4cc(N5CCNCC5)ccc4C3)sc2n1 (single isomer, unassigned) [Example 1-2] | + (>2 μM) |
| Cc1ccc2c(N)c(C(=O)N[C@H]3COc4cc(N5CC6CCC(C5)N6)ccc4C3)sc2n1 (single isomer, unassigned) [Example 1-3] | +++ (0.05-0.2 μM) |
| Cc1ccc2c(N)c(C(=O)N[C@@H]3COc4cc(N5CC6CCC(C5)N6)ccc4C3)sc2n1 (single isomer, unassigned) [Example 1-4] | ++ (0.2-2 μM) |
| Cc1ccc2c(N)c(C(=O)N[C@H]3COc4cc(N5CC6CCCC(C5)N6)ccc4C3)sc2n1 (single isomer, unassigned) [Example 1-5] | ++++ (0.001-0.05 μM) |
| Cc1ccc2c(N)c(C(=O)N[C@@H]3COc4cc(N5CC6CCCC(C5)N6)ccc4C3)sc2n1 (single isomer, unassigned) [Example 1-6] | ++ (0.2-2 μM) |
| Cc1ccc2c(N)c(C(=O)N[C@H]3COc4cc(N5CCN[C@H](C)[C@@H]5C)ccc4C3)sc2n1 (single isomer, unassigned) [Example 1-9] | ++ (0.2-2 μM) |
| Cc1ccc2c(N)c(C(=O)N[C@@H]3COc4cc(N5CCN[C@H](C)[C@@H]5C)ccc4C3)sc2n1 (single isomer, unassigned) [Example 1-10] | ++ (0.2-2 μM) |
| Cc1ccc2c(N)c(C(=O)N[C@H]3COc4cc(N5CCN[C@H](C)[C@H]5C)ccc4C3)sc2n1 (single isomer, unassigned) [Example 1-11] | ++++ (0.001-0.05 μM) |
| Cc1ccc2c(N)c(C(=O)N[C@@H]3COc4cc(N5CCN[C@H](C)[C@H]5C)ccc4C3)sc2n1 (single isomer, unassigned) [Example 1-12] | ++++ (0.001-0.05 μM) |
| Cc1ccc2c(N)c(C(=O)N[C@H]3COc4cc(N5CCN[C@@H](C)[C@@H]5C)ccc4C3)sc2n1 (single isomer, unassigned) [Example 1-13] | ++ (0.2-2 μM) |
| Cc1ccc2c(N)c(C(=O)N[C@@H]3COc4cc(N5CCN[C@@H](C)[C@@H]5C)ccc4C3)sc2n1 (single isomer, unassigned) [Example 1-14] | ++ (0.2-2 μM) |
| Cc1nc2sc(C(=O)N[C@H]3COc4cc(N5CCNCC5)ccc4C3)c(N)c2cc1F (single isomer, unassigned) [Example 1-15] | +++ (0.05-0.2 μM) |
| Cc1nc2sc(C(=O)N[C@@H]3COc4cc(N5CCNCC5)ccc4C3)c(N)c2cc1F (single isomer, unassigned) [Example 1-16] | + (>2 μM) |
| Nc1c(C(=O)N[C@H]2COc3cc(N4CC5CCC(C4)N5)ccc3C2)sc2ncc(F)cc12 (single isomer, unassigned) [Example 1-17] | ++ (0.2-2 μM) |
| Nc1c(C(=O)N[C@@H]2COc3cc(N4CC5CCC(C4)N5)ccc3C2)sc2ncc(F)cc12 (single isomer, unassigned) [Example 1-18] | + (>2 μM) |
| Cc1cnc2c(N)c(C(=O)N[C@H]3COc4cc(N5CCNCC5)ccc4C3)sc2n1 (single isomer, unassigned) [Example 1-21] | ++ (0.2-2 μM) |
| Cc1cnc2c(N)c(C(=O)N[C@@H]3COc4cc(N5CCNCC5)ccc4C3)sc2n1 (single isomer, unassigned) [Example 1-22] | + (>2 μM) |
| CCn1ccc2cc(C(=O)N[C@@H]3COc4cc(N5CC6CCC(C5)N6)ccc4C3)cnc21 (single isomer, unassigned) [Example 1-27] | + (>2 μM) |
| CCn1ccc2cc(C(=O)N[C@H]3COc4cc(N5CC6CCC(C5)N6)ccc4C3)cnc21 (single isomer, unassigned) [Example 1-28] | +++ (0.05-0.2 μM) |
| Cc1ccc2c(N)c(C(=O)N[C@@H]3COc4cc(N5CC6CCC(C5)N6)cc(F)c4C3)sc2n1 (single isomer, unassigned) [Example 1-30] | + (>2 μM) |
| Cc1ccc2c(N)c(C(=O)N[C@H]3COc4cc(N5CCNCC5)c(OC(F)(F)F)cc4C3)sc2n1 (single isomer, unassigned) [Example 1-31] | + (>2 μM) |
| Cc1ccc2c(N)c(C(=O)N[C@@H]3COc4cc(N5CCNCC5)c(OC(F)(F)F)cc4C3)sc2n1 (single isomer, unassigned) [Example 1-32] | ++ (0.2-2 μM) |
| Cc1nc2sc(C(=O)N[C@H]3COc4cc(N5CCNCC5)cc(F)c4C3)c(N)c2s1 (single isomer, unassigned) [Example 1-37] | + (>2 μM) |
| Cc1nc2sc(C(=O)N[C@@H]3COc4cc(N5CCNCC5)cc(F)c4C3)c(N)c2s1 (single isomer, unassigned) [Example 1-38] | ++ (0.2-2 μM) |
| Cc1nc2sc(C(=O)N[C@H]3COc4cc(N5CC6CCC(C5)N6)cc(F)c4C3)c(N)c2s1 (single isomer, unassigned) [Example 1-39] | ++ (0.2-2 μM) |
| Cc1nc2sc(C(=O)N[C@@H]3COc4cc(N5CC6CCC(C5)N6)cc(F)c4C3)c(N)c2s1 (single isomer, unassigned) [Example 1-40] | + (>2 μM) |
| Cc1ccc2c(N)c(C(=O)N[C@@H]3COc4cc(N5CC6CC(C5)N6)cc(F)c4C3)sc2n1 (single isomer, unassigned) [Example 1-41] | +++ (0.05-0.2 μM) |
| Cc1ccc2c(N)c(C(=O)N[C@H]3COc4cc(N5CC6CC(C5)N6)cc(F)c4C3)sc2n1 (single isomer, unassigned) [Example 1-42] | + (>2 μM) |
| Cc1cnc2c(N)c(C(=O)N[C@H]3CCc4cc(N5CCNCC5)c(C)cc4C3)sc2n1 (single isomer, unassigned) [Example 2-34] | ++ (0.2-2 μM) |

Source: patent US11524966B1 (Valo Early Discovery, Inc., priority 2017, dated 2022)
